Experimental data published in patent US6489351B1, “Condensed 4,5,6,7-tetrahydrobenzo[C]thiophenes as enhancer for cell differentation induction factor action” (Takeda Chemical Industries, Ltd., priority 1996, dated 2002).

How the values were obtained:
[1] = system: Chondrocytes, prepared from rabbit rib cartilage; assay: Anti-collagenase action in rabbit chondrocytes (IL-1-induced collagenase production); format: cell-based; details: IL-1 30 ng/ml added, 48 hours, mean±SE, control with IL-1 21.9 ± 1.7, without IL-1 0.1 ± 0.1
Protocol: Chondrocytes, prepared from rabbit rib cartilage, were suspended in Dulbecco's MEM (DMEM) supplemented with 10% FCS, sown to 12-well plates, and cultured until a confluent state was reached. After the culture broth was removed, the cells were cultured for 48 hours in serum-free DMEM containing IL-1 (30 ng/ml) and the sample compound. The collagenase produced upon induction by IL-1 stimulation and secreted in the culture broth was activated by trypsinization; after a soybean trypsin inhibitor was added to inactivate the trypsin, activity was determined with type I collagen as the substrate. The values obtained are given in mean±SE in Table 3. The data were statistically analyzed by Student's t-test.

melting point: 206 to 207 °C (dec.)
SMILES: CSc1oc(C(=O)O)c2c1-c1nc(-c3ccccc3)sc1CC2 [Example 25, 4,5-dihydro-8-methylthio-2-phenylfuro[3,4-e]benzothiazole-6-carboxylic acid]
Collagenase Activity (units/ml) ([1]; compound 10^−5 M): 1.8 ± 0.6 units/ml
Collagenase Activity (units/ml) ([1]; compound 10^−6 M): 11.0 ± 0.8 units/ml
